# Literature values in patent US20100113603A1, “COMBINATION THERAPIES FOR THE TREATMENT OF OBESITY” (priority 2008, published 2010).
# Details: literature studies of each medication
row,Structure (SMILES),weight loss of body weight for drug compared with placebo
1,CCN[C@@H](C)Cc1cccc(C(F)(F)F)c1 [dexfenfluramine],about 5%
2,CC(C)CC(N(C)C)C1(c2ccc(Cl)cc2)CCC1 (stereo not shown) [sibutramine],about 5%
3,CC(C)(N)Cc1ccccc1 [phentermine],about 5%
4,CCCCCCCCCCC[C@@H](C[C@@H]1OC(=O)[C@H]1CCCCCC)OC(=O)[C@H](CC(C)C)NC=O [orlistat],about 5%
